Data: patent US20200367506A1, “RARE EARTH DEPENDENT PLANT PROBIOTIC COMPOSITIONS AND METHODS OF USE” (BOARD OF TRUSTEES OF MICHIGAN STATE UNIVERSITY, priority 2017, published 2020)

Tests used:
[1] = test system: M. extorquens; assay: Illumina-based transcriptome analysis (RNA-seq) of cells grown with and without REE; type: cell-based; details: La^3+ vs without REE
Description: To identify mechanisms by which M. extorquens can sense and acquire REE, as well as to support REE-dependent methanol growth, Illumina-based transcriptome analyses (RNA-seq) was performed. Comparison of cells grown in liquid culture with and without REE addition allowed us to identify changes that may be relevant in planta.
It is intriguing to speculate that the reason why Fdh4 activity has never been detected is because it may require REEs. Frc12 and Oxr are enzymes of the oxalyl-CoA pathway (OXC). This pathway is known to produce glyoxylate when M. extorquens is grown with oxalate as a carbon source.

[2] = test system: M. extorquens mxaF mutant strain; assay: REE/La^3+-dependent methanol growth of mxaF mutant strain; type: cell-based
Description: FIGS. 5A-5B show REE-dependent methylotrophy.
There is a direct link between REEs commonly used in fertilizers, such as La, Ce^3+, Pr^3+, and Nd^3+, and growth of M. extorquens using methanol as carbon source (FIG. 5A). […] Alternatively, it is possible that the remaining lanthanides are not transported into the cell. Detailed biochemical analyses are required to distinguish between these two possibilities.
The concentrations of exogenous La^3+ that would support La^3+-dependent methanol growth were assessed using methanol medium supplemented with La^3+ concentrations ranging from 0-20 μM (FIG. 5B). The mxaF mutant strain was used to eliminate any contribution by the Ca^2+-dependent methanol dehydrogenase MxaFI.

## [La+3] [La^3+, lanthanum]
[1]
  Upregulation of Zn-containing alcohol dehydrogenase Zn-ADH: 4.8 fold
  Upregulation of an ABC transporter: 6.3 fold
  Upregulation of formate dehydrogenase Fdh4: 4 fold
  Upregulation of formyl-CoA transferase Frc12: 3 fold
  Upregulation of oxalyl-CoA (Oxr): 2.5 fold
  Upregulation of putative alcohol dehydrogenase quinoprotein ExaF: 3.4 fold
  Upregulation of the PQQ synthesis pathway: 10 fold
[1]; methanol growth
  Upregulation of methanol dehydrogenase genes XoxF1 and XoxF2: 10 fold
[2]; 1 μM La^3+
  Final OD600: 1.6
[2]; methanol medium
  La^3+ concentration resulting in maximal growth rate: 1 µM
[2]; poor growth
  Lowest La^3+ concentration at which La^3+-dependent methanol growth was observed: 2.5 nM
